Measured values as given in US20230135761A1, “TRANSGENIC PLANTS HAVING PROLONGED RIPENING AND REDUCED SUSCEPTIBILITY TO PATHOGENS” (MIGAL GALILEE RESEARCH INSTITUTE LTD, priority 2020, published 2023).

Tested on: ICDH1 mRNA
Assay: ICDH1 mRNA levels by real time PCR in 1-MCP-treated tomato fruits
Format: in vivo, Solanum lycopersicum; cv. Micro Tom
Settings: 1-MCP-treated vs untreated Micro-Tom tomatoes; 24 hr at 20° C.; stages MG, BRK, EO; FIG. 2
Procedure: Tomato (Solanum lycopersicum; cv. Micro Tom) plants were grown under natural light in a climate-controlled greenhouse, at 24° C. during the day and 18° C. during the night. 1-MCP was applied using SmartFresh powder (Rohm and Haas, Philadelphia, Pa., USA) containing 0.14% 1-MCP as active ingredient, dissolved in warm water at a concentration of 2,000 nL·mL^−1 1-MCP (stock solution). Fruits were enclosed in a 30 L airtight barrel and the stock solution was injected to a final concentration of […]. Treatment duration was 24 hr at 20° C. For the control, fruits were treated identically excluding 1-MCP application (Gamrasni et al., 2017).
RNA was extracted using NucleoSpin® RNA Plant kit (Macherey-Nagel) according to the manufacturer's protocol. cDNA was prepared from 1 μg total RNA with Verso cDNA Synthesis Kit (ThermoFisher Scientific). The reaction was performed at 42° C. for 30 min. followed by inactivation at 95° C. for 2 min. […] Relative expression ratio was normalized to the S1ASR gene (Solyc04g071610) used as an internal control (Relative RNA levels were determined by the delta-delta Ct method). The significance of results (n=3) was evaluated by independent t-test at *P<0.05 using the SPSS Statistics 20 software (IBM, USA).

CC1=CC1 [1-MCP, 1-methylcyclopropene]
ICDH1 mRNA production / levels: reduced significantly
